Data from patent publication US7378428B2, “Nitrogen-containing bicyclic compounds and drugs containing the same as the active ingredient” (Ono Pharmaceutical Co., Ltd., priority 2002, dated 2008).

Experiments:
Human CB2 receptors = molecular target: T1, Human CB2 receptors (Homo sapiens, UniProt P34972); assay: In vitro signaling assay: inhibition of forskolin-induced cAMP production in human CB2 receptor expressing CHO cells; format: cell-based; conditions: 10 μM forskolin, 15 minutes at room temperature
T1 construct: expressed in transfected cells; host or cells: CHO cells
Method: Human CB2 receptors expressed CHO cells were used for the assays. Cells were dispersed seeded in 96-well plates in a density of 5×10^4 cells/well, and were subjected to experiment the next day. After removing the culture media 1 mM isobutylmethylxanthine (IBMX) solution was added, and cells were incubated for 10 minutes at room temperature. Next, a mixture of 10 μM forskolin and the compound of the present invention was added. After additional incubation for 15 minutes at room temperature, the culture supernatant was discarded and 200 μl of lysis reagent (attached to a cAMP EIA) was added. The amounts of cAMP of the lysate were determined by a cAMP EIA kit (Amersham) under conditions of the forskolin-induced cAMP production. The compound of the present invention was dissolved in DMSO and the solution was diluted to adjust the final concentration of DMSO to 0.1%. IC50 values were calculated from the inhibitory ratio of the compound of the present invention toward the amount of the forskolin-induced cAMP production. By the same experiment using CHO cells, it was confirmed that this inhibitory effect toward cAMP production by the compound was mediated via the human CB2 receptors.

PDE7 [1] = molecular target: T2, PDE7 (Homo sapiens, UniProt Q13946); assay: In vitro enzyme assay: PDE7 inhibitory activity; format: biochemical; design: endogenous in cells; host or cells: HuT78 cells; soluble fraction separated on a MonoQ anion-exchange column; conditions: PDE7 fraction from HuT78 cells, 30 minutes at room temperature
Method: HuT78 cells (derived from human T cell lymphocyte) were cultured in PRMI1640 medium containing 10% bovine fetus serum. 2 L of cells (approximately 8×10^8 cells) were collected, and they were homogenized in a buffer [50 mmol/l tris hydrochloric acid buffer containing 1 mmol/l dithiothreitol (DTT), 2 mmol/l ethylenediamine tetraacetate disodium (EDTA-2Na). After centrifugation (50,000 rpm, 4° C., 1 hour), the supernatant was collected, and filtered over 0.22 μm filter and the filtrate was fractionated by column chromatography on MonoQ (Pharmacia, hard negative ion exchange column) using the filtrate as soluble portion. The PDE activity of the fraction eluted by the concentration gradient of NaCl of 0-0.8 mol/L was measured using 1 μmol/l of cAMP as a substrate. Fractions where PDE activity is not inhibited by 10 μmol/l of rolipram ([…]) are collected. As to the PDE activity of these fractions, substrate-specificity against cAMP and Michaelis-Menten constant were measured and sensitivity to rolipram was confirmed. Then the fractions which show specificity and high affinity to cAMP which are non-sensitive fractions to rolipram were identified as PDE7. The fractions were used as an enzyme liquor for the measurement of PDE inhibitory activity.
PDE7 inhibitory activity of the compound of the present invention of was evaluated by the following method. 70 μl of diluted enzyme solution, 10 μl of the solution of the compound of the present invention (10% in DMSO), 10 μl of reaction buffer solution [50 mmol/l MgCl2, 1 mg/ml bovine serum albumin, 200 mmol/l tris hydrochloric acid buffer (pH 8.0) containing 40 mmol/l 2-mercaptoethanol] in 96 well plate and it was incubated for 30 minutes at room temperature. It was microwaved for 2.5 minutes to terminate the reaction. It was centrifuged (2,000 rpm for 1 minute) and thereto was added 10 μl of 1 mg/ml snake venom (Sigma, cat. V7000) and it was incubated for 30 minutes at room temperature. The […] (50 μl) was applied to alumina column (100 μl). Purified ^3H-adenosine was eluted with 0.005N hydrochloric acid (80 μl) and its radioactivity of the elute was measured.
PDE7 inhibitory activity of the present invention was evaluated by the activity inhibitory percentage calculated from the following equation. Activity inhibitory percentage (%)=(1-radioactivity in the presence of the compound of the present invention/radioactivity in the absence of the compound of the present invention)×100

PDE7 [2] = molecular target: T2, PDE7; conditions: J. Biol. Chem., 268, 12925 (1993); cited from earlier work

T1 sequence (P34972 whole entry): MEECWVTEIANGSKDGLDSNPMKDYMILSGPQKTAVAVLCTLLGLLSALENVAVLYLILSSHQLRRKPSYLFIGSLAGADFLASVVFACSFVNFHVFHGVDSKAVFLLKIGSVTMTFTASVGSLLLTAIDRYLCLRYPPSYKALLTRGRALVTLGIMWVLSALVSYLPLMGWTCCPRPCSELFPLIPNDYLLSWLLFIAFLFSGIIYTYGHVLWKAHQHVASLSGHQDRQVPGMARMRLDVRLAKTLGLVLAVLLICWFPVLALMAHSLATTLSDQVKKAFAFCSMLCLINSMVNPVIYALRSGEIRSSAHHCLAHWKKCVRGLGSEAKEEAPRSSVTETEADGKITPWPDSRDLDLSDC
T2 sequence (Q13946 whole entry): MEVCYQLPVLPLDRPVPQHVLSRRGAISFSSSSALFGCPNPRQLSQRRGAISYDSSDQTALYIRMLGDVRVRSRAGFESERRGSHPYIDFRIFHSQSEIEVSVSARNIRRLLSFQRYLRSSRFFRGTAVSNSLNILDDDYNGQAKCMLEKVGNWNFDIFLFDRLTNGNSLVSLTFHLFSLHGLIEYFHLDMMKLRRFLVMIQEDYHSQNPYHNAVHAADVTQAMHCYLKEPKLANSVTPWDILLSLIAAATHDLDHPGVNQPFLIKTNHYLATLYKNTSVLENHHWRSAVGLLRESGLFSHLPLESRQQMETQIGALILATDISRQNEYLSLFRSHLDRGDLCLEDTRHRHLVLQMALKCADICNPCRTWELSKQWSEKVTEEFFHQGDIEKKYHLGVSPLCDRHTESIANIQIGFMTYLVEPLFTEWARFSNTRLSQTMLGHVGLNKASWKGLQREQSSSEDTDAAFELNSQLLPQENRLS

IC50 (Human CB2 receptors) [nM] | IC50 (PDE7 [1]) [nM] | SMILES | also measured
5.3 |  | CC1(C)Cc2cc(C#N)c(C#N)cc2/C(=C/C(=O)C2CCOCC2)N1 [46(3), (Z)-2-(6,7-dicyano-3,3-dimethyl-3,4-dihydro-(2H)-isoquinolin-1-ylidene)-1-(tetrahydropyran-4-yl)ethan-1-one] | 
 | 760 | CC1(C)Cc2ccc(Cl)cc2/C(=C/C(=O)C23CC4CC(CC(C4)C2)C3)N1 [11(79), (Z)-2-(7-chloro-3,3-dimethyl-3,4-dihydro-(2H)-isoquinolin-1-ylidene)-1-(adamantan-1-yl)ethan-1-one] | 
 | 270 | COc1ccc2c(c1)CC(C)(C)N/C2=C\C(=O)C1CCCCC1 [12(7), (Z)-2-(6-methoxy-3,3-dimethyl-3,4-dihydro-(2H)-isoquinolin-1-ylidene)-1-cyclohexylethan-1-one] | 
 | 150 | COc1ccc2c(c1)/C(=C/C(=O)c1ccc(C#N)cc1)NC(C)(C)C2 [11(35), (Z)-2-(7-methoxy-3,3-dimethyl-3,4-dihydro-(2H)-isoquinolin-1-ylidene)-1-(4-cyanophenyl)ethan-1-one] | 
4.1 |  | Cc1cc2c(cc1O)/C(=C/C(=O)C1CCCCCC1)NC(C)(C)C2 [47(6), (Z)-2-(7-hydroxy-3,3,6-trimethyl-3,4-dihydro-(2H)-isoquinolin-1-ylidene)-1-cycloheptylethan-1-one] | 
 | 970 | COc1ccccc1C(=O)/C=C1\NC(C)(C)Cc2ccc(Cl)cc21 [11(43), (Z)-2-(7-chloro-3,3-dimethyl-3,4-dihydro-(2H)-isoquinolin-1-ylidene)-1-(2-methoxyphenyl)ethan-1-one] | 
 | 23 | COc1ccc2c(c1)/C(=C/C(=O)c1ccc(N)cc1)NC2(C)C [Example 58, (Z)-2-(6-methoxy-3,3-dimethyl-2,3-dihydro-(2H)-isoindol-1-ylidene)-1-(4-aminophenyl)ethan-1-one] | 
 | 1100 | COc1ccccc1C(=O)/C=C1\NC(C)(C)Cc2cc(Cl)ccc21 [12(15), (Z)-2-(6-chloro-3,3-dimethyl-3,4-dihydro-(2H)-isoquinolin-1-ylidene)-1-(2-methoxyphenyl)ethan-1-one] | 
 |  | COc1ccc(C2CNC(=O)C2)cc1OC1CCCC1 (stereo not shown) [rolipram] | inhibition of PDE7 (PDE7 [2]): not inhibited
5.2 |  | Cc1cc2c(cc1O)/C(=C/C(=O)C13CC4CC(CC(C4)C1)C3)NC(C)(C)C2 [47(4), (Z)-2-(7-hydroxy-3,3,6-trimethyl-3,4-dihydro-(2H)-isoquinolin-1-ylidene)-1-(adamantan-1-yl)ethan-1-one] | 
 | 370 | CNc1ccc2c(c1)/C(=C/C(=O)c1ccc(C#N)cc1)NC(C)(C)C2 [11(162), (Z)-2-(7-methylamino-3,3-dimethyl-3,4-dihydro-(2H)-isoquinolin-1-ylidene)-1-(4-cyanophenyl)ethan-1-one] | 
3.3 |  | COc1ccc2c(c1)C(C)(C)N/C2=C\C(=O)c1ccccc1OC [57(2), (Z)-2-(5-methoxy-3,3-dimethyl-2,3-dihydro-(2H)-isoindol-1-ylidene)-1-(2-methoxyphenyl)ethan-1-one] | 
 | 27 | COc1ccc2c(c1)/C(=C/C(=O)c1ccc(NC(N)=O)cc1)NC(C)(C)C2 [Example 73, (Z)-2-(7-methoxy-3,3-dimethyl-3,4-dihydro-(2H)-isoquinolin-1-ylidene)-1-(4-((aminocarbonyl)amino)phenyl)ethan-1-one] | 
